Active and inactive are the calls of the source. The calls are words filed in the database; no cut-off is given here.
Columns and labels:
[1] = Inhibition of tubulin polymerization after 1 hr by fluorescence assay
[2] = system: A549; assay: Induction of apoptosis in human A549 cells assessed as increase in caspase3 activity using AFC-conjugated Ac-DEVD as substrate at 2 uM after 48 hrs by fluorescence assay relative to control; format: functional
[3] = system: ACHN; assay: Cytotoxicity against human ACHN cells after 48 hrs by MTT assay; format: functional, cell-based
[4] = system: MCF7; assay: cells; conditions: Homo sapiens, MCF7, 48 h
Description: Cytotoxicity against human MCF7 cells after 48 hrs by MTT assay

[5] = system: A549; assay: Cell cycle arrest in human A549 cells assessed as cell accumulation at subG1 phase at 2 uM after 48 hrs by propidium iodide staining based flow cytometry (reference value: […]); format: functional
[6] = system: A549; assay: cells; conditions: Homo sapiens, A549, 48 h
Description: Cytotoxicity against human A549 cells after 48 hrs by MTT assay

[7] = system: A549; assay: Cell cycle arrest in human A549 cells assessed as cell accumulation at G0/G1 phase at 2 uM after 48 hrs by propidium iodide staining based flow cytometry (reference value: 70.15%); format: functional
[8] = system: HT-29; assay: Cytotoxicity against human HT-29 cells after 48 hrs by MTT assay; format: functional, cell-based; conditions: HT-29, 48 h, read-out: IC50
[9] = system: A549; assay: Cell cycle arrest in human A549 cells assessed as cell accumulation at G2/M phase at 2 uM after 48 hrs by propidium iodide staining based flow cytometry (reference value: 23.75%); format: functional
[10] = target: Tubulin (Homo sapiens) (UniProt P68371+Q9H4B7+P0DPH7+P68366+Q13509+Q71U36+P04350+Q3ZCM7+P07437+P68363+Q9BQE3+Q6PEY2+Q13885+Q9BVA1+Q9BUF5); assay: Inhibition of tubulin polymerization in human A549 cells assessed as disrupted microtubule organization at 2 uM after 48 hrs by immunohistochemistry analysis; format: cell-based
[11] = system: A-375; assay: Cytotoxicity against human A375 cells after 48 hrs by MTT assay; format: functional, cell-based; conditions: A-375, 48 h
[12] = Inhibition of tubulin polymerization at 3 uM after 1 hr by fluorescence assay

Question: Which IC50 [1] does the source give for `COc1ccc(/C=C/C(=O)c2cc(OC)c(OC)c(OC)c2)cc1O` here?
Answer: 3700 nM

Question: What about the “fold change (FC)” value [2] of the same compound?
Answer: 6

Question: And the IC50 [3]?
Answer: 1620 nM

Question: What about the IC50 [4] of the same compound?
Answer: 120 nM

Question: And the Activity [5]?
Answer: 12.34%

Question: What about the IC50 [6] of the same compound?
Answer: 760 nM

Question: And the Activity [7]?
Answer: 18.59%

Question: And the IC50 [8]?
Answer: 1900 nM

Question: And the Activity [9]?
Answer: 55.47%

Question: And the inhibition [10]?
Answer: Active

Question: What about the IC50 [11] of the same compound?
Answer: 190 nM

Question: And the inhibition [12]?
Answer: 62.6%

Reference: ChEMBL document CHEMBL2034833, “Synthesis of chalcone-amidobenzothiazole conjugates as antimitotic and apoptotic inducing agents” (Bioorg Med Chem, 2012)
